Data as given in patent US10738028B2, “Spiro three-membered ring, spiro five-membered ring peptide deformylase inhibitor and use thereof in antibacteria and anti-tumor” (priority 2016, dated 2020).
Values after ≈ are worked out from the molar mass of the structure shown.

Experiments:
Assay type in all cases: cell-based
[1] = tested on: HCT-116 colorectal cancer cell line; experiment: CCK-8 proliferation inhibition; conditions: Homo sapiens, HCT-116, 72 h, concentration of 30 μM; 72 hours; CCK-8; read-out: HCT116 inhibition rate/%
Outline: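 Growth inhibition is read by CCK-8 (1:10 dilution) after 72 h of compound exposure. HCT-116 cells grow in McCoy's 5A containing 10% newborn bovine serum at 2000 cells/well, with 1‰ DMSO as vehicle control.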

[2] = tested on: methicillin-resistant Staphylococcus aureus (MRSA); experiment: MIC, two-fold agar dilution (CLSI), clinical isolates
Source text: (§1) 1. The invention adopts the two-fold agar dilution method recommended by the operating procedure of antimicrobial susceptibility testing set by American Clinical and Laboratory Standards Institute (CLSI) to determine the Minimum Inhibitory Concentration (MIC) of the test samples against the tested strains.

[3] = tested on: Escherichia coli (including ESBLs, non-ESBLs); experiment: as above
Source text: as §1

[4] = tested on: Enterococcus faecalis (EFA); experiment: as above
Source text: as §1

[5] = tested on: methicillin-sensitive Staphylococcus aureus (MSSA); experiment: as above
Source text: as §1

[6] = tested on: methicillin-sensitive Staphylococcus epidermidis (MSSE); experiment: as above
Source text: as §1

[7] = tested on: Moraxella catarrhalis (BCA); experiment: as above
Source text: as §1

[8] = tested on: methicillin-resistant Staphylococcus epidermidis (MRSE); experiment: as above
Source text: as §1

[9] = tested on: Enterococcus faecium (EFM); experiment: as above
Source text: as §1

[10] = tested on: Streptococcus pneoumoniae (SPN); experiment: as above
Source text: as §1

O=CN(O)C[C@@H](CC1CCCC1)C(=O)N1CC2(CC2)C[C@H]1C(=O)Nc1cnccn1 [Example 26]
inhibition at 30 µM [1]: 18%
MIC (anti-bacterial activity) ([2]; strain MRSA 15-1): 0.25 µg/mL (≈ 0.602 µM)
MIC (anti-bacterial activity) ([2]; strain MRSA 15-2): 0.25 µg/mL (≈ 0.602 µM)
MIC (anti-bacterial activity) ([2]; strain MRSA 15-3): 0.25 µg/mL (≈ 0.602 µM)
MIC (anti-bacterial activity) ([2]; strain MRSA 15-4): 0.25 µg/mL (≈ 0.602 µM)
MIC (anti-bacterial activity) ([3]; strain ECO+ 15-1): 32 µg/mL (≈ 77 µM)
MIC (anti-bacterial activity) ([3]; strain ECO+ 15-2): 32 µg/mL (≈ 77 µM)
MIC (anti-bacterial activity) ([3]; strain ECO+ 15-3): 32 µg/mL (≈ 77 µM)
MIC (anti-bacterial activity) ([3]; strain ECO+ 15-4): 32 µg/mL (≈ 77 µM)
MIC (anti-bacterial activity) ([3]; strain ECO− 15-1): 32 µg/mL (≈ 77 µM)
MIC (anti-bacterial activity) ([3]; strain ECO− 15-2): 32 µg/mL (≈ 77 µM)
MIC (anti-bacterial activity) ([3]; strain ECO− 15-3): 32 µg/mL (≈ 77 µM)
MIC (anti-bacterial activity) ([3]; strain ECO− 15-4): 32 µg/mL (≈ 77 µM)
MIC (anti-bacterial activity) ([4]; strain EFA 15-1): 2 µg/mL (≈ 4.81 µM)
MIC (anti-bacterial activity) ([4]; strain EFA 15-2): 2 µg/mL (≈ 4.81 µM)
MIC (anti-bacterial activity) ([4]; strain EFA 15-3): 0.5 µg/mL (≈ 1.2 µM)
MIC (anti-bacterial activity) ([4]; strain EFA 15-4): 2 µg/mL (≈ 4.81 µM)
MIC (anti-bacterial activity) ([4]; strain EFA 15-5): 2 µg/mL (≈ 4.81 µM)
MIC (anti-bacterial activity) ([4]; strain EFA 15-6): 2 µg/mL (≈ 4.81 µM)
MIC (anti-bacterial activity) ([4]; strain EFA 15-9): 2 µg/mL (≈ 4.81 µM)
MIC (anti-bacterial activity) ([5]; strain MSSA 15-3): 0.25 µg/mL (≈ 0.602 µM)
MIC (anti-bacterial activity) ([5]; strain MSSA 15-4): 0.25 µg/mL (≈ 0.602 µM)
MIC (anti-bacterial activity) ([5]; strain MSSA 15-5): 0.25 µg/mL (≈ 0.602 µM)
MIC (anti-bacterial activity) ([5]; strain MSSA 15-6): 0.25 µg/mL (≈ 0.602 µM)
MIC (anti-bacterial activity) ([6]; strain MSSE 15-3): 0.125 µg/mL (≈ 0.301 µM)
MIC (anti-bacterial activity) ([6]; strain MSSE 15-4): 0.5 µg/mL (≈ 1.2 µM)
MIC (anti-bacterial activity) ([6]; strain MSSE 15-5): 0.5 µg/mL (≈ 1.2 µM)
MIC (anti-bacterial activity) ([6]; strain MSSE 15-6): 0.5 µg/mL (≈ 1.2 µM)
MIC (anti-bacterial activity) ([7]; strain BCA 14-1): 0.5 µg/mL (≈ 1.2 µM)
MIC (anti-bacterial activity) ([7]; strain BCA 14-4): 0.5 µg/mL (≈ 1.2 µM)
MIC (anti-bacterial activity) ([7]; strain BCA 14-5): 0.25 µg/mL (≈ 0.602 µM)
MIC (anti-bacterial activity) ([7]; strain BCA 14-6): 0.5 µg/mL (≈ 1.2 µM)
MIC (anti-bacterial activity) ([7]; strain BCA 14-7): 0.25 µg/mL (≈ 0.602 µM)
MIC (anti-bacterial activity) ([7]; strain BCA 14-8): 0.5 µg/mL (≈ 1.2 µM)
MIC (anti-bacterial activity) ([7]; strain BCA 14-10): 0.25 µg/mL (≈ 0.602 µM)
MIC (anti-bacterial activity) ([8]; strain MRSE 15-1): 0.125 µg/mL (≈ 0.301 µM)
MIC (anti-bacterial activity) ([8]; strain MRSE 15-2): 0.5 µg/mL (≈ 1.2 µM)
MIC (anti-bacterial activity) ([8]; strain MRSE 15-3): 0.5 µg/mL (≈ 1.2 µM)
MIC (anti-bacterial activity) ([8]; strain MRSE 15-7): 0.5 µg/mL (≈ 1.2 µM)
MIC (anti-bacterial activity) ([9]; strain EFM 15-1): 0.5 µg/mL (≈ 1.2 µM)
MIC (anti-bacterial activity) ([9]; strain EFM 15-2): 0.5 µg/mL (≈ 1.2 µM)
MIC (anti-bacterial activity) ([9]; strain EFM 15-3): 0.25 µg/mL (≈ 0.602 µM)
MIC (anti-bacterial activity) ([9]; strain EFM 15-4): 0.5 µg/mL (≈ 1.2 µM)
MIC (anti-bacterial activity) ([9]; strain EFM 15-5): 0.25 µg/mL (≈ 0.602 µM)
MIC (anti-bacterial activity) ([9]; strain EFM 15-6): 0.5 µg/mL (≈ 1.2 µM)
MIC (anti-bacterial activity) ([10]; strain SPN 16-2): 0.25 µg/mL (≈ 0.602 µM)
MIC (anti-bacterial activity) ([10]; strain SPN 16-4): 2 µg/mL (≈ 4.81 µM)

O=CN(O)C[C@@H](CC1CCCC1)C(=O)N1CC2(CC2)C[C@H]1C(=O)Nc1ccncn1 [Example 27, (S)-5-((R)-3-cyclopentyl-2-((N-hydroxyformamido)methyl)propionyl)-N-(pyrimidin-4-yl)-5-spiro[2.4]heptane-6-carboxamide]
inhibition at 30 µM [1]: 17%
MIC (anti-bacterial activity) ([2]; strain MRSA 15-1): 0.125 µg/mL (≈ 0.301 µM)
MIC (anti-bacterial activity) ([2]; strain MRSA 15-2): 0.125 µg/mL (≈ 0.301 µM)
MIC (anti-bacterial activity) ([2]; strain MRSA 15-3): 0.125 µg/mL (≈ 0.301 µM)
MIC (anti-bacterial activity) ([2]; strain MRSA 15-4): 0.125 µg/mL (≈ 0.301 µM)
MIC (anti-bacterial activity) ([3]; strain ECO+ 15-1): 16 µg/mL (≈ 38.5 µM)
MIC (anti-bacterial activity) ([3]; strain ECO+ 15-2): 32 µg/mL (≈ 77 µM)
MIC (anti-bacterial activity) ([3]; strain ECO+ 15-3): 32 µg/mL (≈ 77 µM)
MIC (anti-bacterial activity) ([3]; strain ECO+ 15-4): 32 µg/mL (≈ 77 µM)
MIC (anti-bacterial activity) ([3]; strain ECO− 15-1): 32 µg/mL (≈ 77 µM)
MIC (anti-bacterial activity) ([3]; strain ECO− 15-2): 32 µg/mL (≈ 77 µM)
MIC (anti-bacterial activity) ([3]; strain ECO− 15-3): 32 µg/mL (≈ 77 µM)
MIC (anti-bacterial activity) ([3]; strain ECO− 15-4): 32 µg/mL (≈ 77 µM)
MIC (anti-bacterial activity) ([4]; strain EFA 15-1): 2 µg/mL (≈ 4.81 µM)
MIC (anti-bacterial activity) ([4]; strain EFA 15-2): 2 µg/mL (≈ 4.81 µM)
MIC (anti-bacterial activity) ([4]; strain EFA 15-3): 2 µg/mL (≈ 4.81 µM)
MIC (anti-bacterial activity) ([4]; strain EFA 15-4): 2 µg/mL (≈ 4.81 µM)
MIC (anti-bacterial activity) ([4]; strain EFA 15-5): 2 µg/mL (≈ 4.81 µM)
MIC (anti-bacterial activity) ([4]; strain EFA 15-6): 2 µg/mL (≈ 4.81 µM)
MIC (anti-bacterial activity) ([4]; strain EFA 15-9): 2 µg/mL (≈ 4.81 µM)
MIC (anti-bacterial activity) ([5]; strain MSSA 15-3): 0.125 µg/mL (≈ 0.301 µM)
MIC (anti-bacterial activity) ([5]; strain MSSA 15-4): 0.125 µg/mL (≈ 0.301 µM)
MIC (anti-bacterial activity) ([5]; strain MSSA 15-5): 0.125 µg/mL (≈ 0.301 µM)
MIC (anti-bacterial activity) ([5]; strain MSSA 15-6): 0.125 µg/mL (≈ 0.301 µM)
MIC (anti-bacterial activity) ([6]; strain MSSE 15-3): 0.125 µg/mL (≈ 0.301 µM)
MIC (anti-bacterial activity) ([6]; strain MSSE 15-4): 0.125 µg/mL (≈ 0.301 µM)
MIC (anti-bacterial activity) ([6]; strain MSSE 15-5): 0.125 µg/mL (≈ 0.301 µM)
MIC (anti-bacterial activity) ([6]; strain MSSE 15-6): 0.125 µg/mL (≈ 0.301 µM)
Anti-bacterial activity (MIC), strain BCA 14-10 ([7]; clinical isolate BCA 14-10): 0.5 µg/mL
MIC (anti-bacterial activity) ([7]; strain BCA 14-1): 2 µg/mL (≈ 4.81 µM)
MIC (anti-bacterial activity) ([7]; strain BCA 14-4): 2 µg/mL (≈ 4.81 µM)
MIC (anti-bacterial activity) ([7]; strain BCA 14-5): 0.25 µg/mL (≈ 0.602 µM)
MIC (anti-bacterial activity) ([7]; strain BCA 14-6): 0.125 µg/mL (≈ 0.301 µM)
MIC (anti-bacterial activity) ([7]; strain BCA 14-7): 0.25 µg/mL (≈ 0.602 µM)
MIC (anti-bacterial activity) ([7]; strain BCA 14-8): 0.5 µg/mL (≈ 1.2 µM)
MIC (anti-bacterial activity) ([8]; strain MRSE 15-1): 0.06 µg/mL (≈ 0.144 µM)
MIC (anti-bacterial activity) ([8]; strain MRSE 15-2): 0.125 µg/mL (≈ 0.301 µM)
MIC (anti-bacterial activity) ([8]; strain MRSE 15-3): 0.125 µg/mL (≈ 0.301 µM)
MIC (anti-bacterial activity) ([8]; strain MRSE 15-7): 0.125 µg/mL (≈ 0.301 µM)
MIC (anti-bacterial activity) ([9]; strain EFM 15-1): 0.25 µg/mL (≈ 0.602 µM)
MIC (anti-bacterial activity) ([9]; strain EFM 15-2): 1 µg/mL (≈ 2.41 µM)
MIC (anti-bacterial activity) ([9]; strain EFM 15-3): 0.25 µg/mL (≈ 0.602 µM)
MIC (anti-bacterial activity) ([9]; strain EFM 15-4): 0.5 µg/mL (≈ 1.2 µM)
MIC (anti-bacterial activity) ([9]; strain EFM 15-5): 0.25 µg/mL (≈ 0.602 µM)
MIC (anti-bacterial activity) ([9]; strain EFM 15-6): 0.5 µg/mL (≈ 1.2 µM)
MIC (anti-bacterial activity) ([10]; strain SPN 16-2): 0.25 µg/mL (≈ 0.602 µM)
MIC (anti-bacterial activity) ([10]; strain SPN 16-4): 2 µg/mL (≈ 4.81 µM)
